# Tested on: H1 human embryonic stem cells
# Assay: Screen of CDK, GSK3 and TRK inhibitors with or without GDF-8, SOX17 and cell number (Example 20, Table 17)
# Type: cell-based
# Conditions: for Cell Number, Average Total Cell Number / Sox17 Expression, Average Total Intensity / Cell Number, % of positive control / Sox17 Expression, % of positive control: Plate 1; for Cell Number, % of positive control / Sox17 Expression, % of positive control: positive control = Activin A/Wnt3a
# Procedure: Briefly, clusters of H1 human embryonic stem cells were grown on reduced growth factor Matrigel™ (Invitrogen; Cat #356231) coated tissue culture plastic. Cells were passaged using collagenase (Invitrogen; Cat #17104-019) treatment and gentle scraping, washed to remove residual enzyme, and plated with even dispersal at a ratio of 1:1 (surface area) on reduced growth factor […]™ (BD Biosciences; Cat #356231)-coated 96-well black plates (Packard ViewPlates; PerkinElmer; Cat #6005182) using volumes of 100 μl/well. Cells were allowed to attach and then recover log phase growth over a 1 to 3 day time period, feeding daily with MEF conditioned medium supplemented with 8 ng/ml bFGF (R&D Systems; Cat #233-FB). Plates were maintained at 37° C., 5% CO2 in a humidified box throughout the duration of assay.
# Screening was conducted using the compounds described in Table 16. […] Compounds were made available as 5 mM stocks in 96-well plate format, solubilized in 100% DMSO (Sigma; Cat #D2650) and stored at −80° C. The library compounds were further diluted to an intermediate concentration of 0.2 mM in 50 mM HEPES (Invitrogen; Cat #15630-080), 20% DMSO and stored at 4° C. Test conditions were performed in triplicate, feeding on alternating days over a four-day assay period. Assay was initiated by aspirating culture medium from each well followed by three washes in PBS (Invitrogen; Cat #14190) to remove residual growth factors. On the first day of assay, test volumes of 200 μl per well were added to each well using DMEM:F12 base medium (Invitrogen; Cat #11330-032) supplemented with 0.5% FCS (HyClone; Cat #SH30070.03) and 100 ng/ml GDF-8 (R&D Systems, Cat #788-G8) plus 2.5 μM compound. A parallel set of test samples were treated in an identical manner but omitting GDF-8 from the medium. On the third day of assay, test volumes of 100 μper well were added to each well using DMEM:F12 base medium supplemented with 2% FCS plus 100 ng/ml GDF-8 (R&D Systems, Cat #788-G8). […] Positive control samples contained the same base medium supplemented with FCS and 100 ng/ml recombinant human activin A (PeproTech; Cat #120-14) throughout the four day assay along with Wnt3a (20 ng/ml) addition on days 1 and 2. Negative control samples contained DMEM:F12 base medium supplemented with FCS.
# At the conclusion of four-days of culture, assay plates were washed twice with PBS (Invitrogen; Cat #14190), fixed with 4% paraformaldehyde (Alexis Biochemical; Cat #ALX-350-011) at room temperature for 20 minutes, then washed three times with PBS and permeabilized with 0.5% Triton X-100 (Sigma; Cat #T8760-2) for 20 minutes at room temperature. Cells were washed again three times with PBS and blocked with 4% chicken serum (Invitrogen; Cat #16110082) in PBS for 30 minutes at room temperature. Primary antibody (goat anti-human SOX17; R&D Systems; Cat #AF1924) was diluted 1:100 in 4% chicken serum and added to each well for one hour at room temperature. Alexa Fluor 488 conjugated secondary antibody (chicken anti-goat IgG; Molecular Probes; Cat #AZ1467) was diluted 1:200 in PBS and added to each sample well after washing three times with PBS. To counterstain nuclei, 4 μg/ml Hoechst 33342 (Invitrogen; Cat #H3570) was added for ten minutes at room temperature. Plates were washed once with PBS and left in 100 μl/well PBS for imaging.
# Imaging was performed using an IN Cell Analyzer 1000 (GE Healthcare) utilizing the 51008bs dichroic for cells stained with Hoechst 33342 and Alexa Fluor 488. Exposure times were optimized from positive control wells and from untreated negative control wells stained with secondary antibody alone. Images from 15 fields per well were acquired to compensate for any cell loss during the bioassay and subsequent staining procedures. Measurements for total cell number and total SOX17 intensity were obtained from each well using IN Cell Developer Toolbox 1.7 (GE Healthcare) software. […]
# [1] = compound in combination with GDF8
# [2] = growth factor treatment alone, no compound
Compound,"SOX17 expression in the presence of GDF-8 (2.5 μM compound with 100 ng/ml GDF-8, four days)","Cell Number, Average Total Cell Number [1]","Sox17 Expression, Average Total Intensity [1]","Cell Number, % of positive control [1]","Sox17 Expression, % of positive control [1]","Cell Number, Average Total Cell Number [2]","Sox17 Expression, Average Total Intensity [2]","Cell Number, % of positive control [2]","Sox17 Expression, % of positive control [2]"
"O=C1CCN2CCN(CC2)Cc2cc(Cl)cc(c2)Nc2ncnc(n2)-c2cncc(c2)CCCN1 [Compound 34, 5-Chloro-1,8,10,12,16,22,26,32-octaazapentacyclo[24.2.2.1˜3.7˜0.1˜9,13˜0.1˜14.18˜]tritriaconta-3(33), 4,6,9(32), 10,12,14(31), 15,17-nonaen-23-one]",induced significant SOX17 expression,13926,2.6E+08,96.2 % of positive control,111.8 % of positive control,–,–,–,–
"GDF-8: growth factor GDF-8, also known as myostatin, member of the TGF-β family",–,–,–,–,–,2856,2.2E+07,19.7 % of positive control,9.4 % of positive control

# — patent publication US9593305B2, “Differentiation of pluripotent stem cells” (Janssen Biotech, Inc., priority 2008, dated 2017)
